In patent publication US6756354B2, “Therapeutic compositions containing oligo (ethylene glycol)-terminated 1,2-dithiolanes and their conjugates” (priority 2001, dated 2004):
Structures can show the parent of a compound that is named as a salt.

Tests used:
[1] = mouse
[2] = oral; presystemic glucuronide conjugation; cited from earlier work

Compound	oral bioavailability (concluded from glucose reduction) ([1]; in vivo, po)	serum glucose ([1]; oral gavage, 10 mg/mL solution, 10 mL/kg dose)	absolute bioavailability [2]
OEG-terminated 1,2-dithiolane-conjugated insulin: insulin conjugated at lysine-29 of the beta-chain with NHS-ester of carboxyl-OEG-terminated thioctamide (x is 8)	orally bioavailable	reduction	–
O=C(c1ccc(OCCN2CCCCC2)cc1)c1c(-c2ccc(O)cc2)sc2cc(O)ccc12 [Raloxifene, [6-hydroxy-2-(4-hydroixyphenyl)benzo[b]thien-3-yl]-4-[2-(1-piperidinyl)ethoxy]phenyl]methanone hydrochloride]	–	–	about 2%
